Measurements from ChEMBL document CHEMBL5131480, “Cinnamic acid derivatives linked to arylpiperazines as novel potent inhibitors of tyrosinase activity and melanin synthesis” (Eur J Med Chem, 2022).
Calls of active or inactive are those of the source. No cut-off for these calls is given here.

Experiments:
Mushroom tyrosinase = Mushroom tyrosinase (Agaricus bisporus, UniProt O42713+Q00024+C7FF04+C7FF05); assay: Inhibition of mushroom tyrosinase using L-DOPA as substrate preincubated with substrate for 10 mins followed by addition of enzyme and measured for 5 mins by spectrophotometric analysis
[1] = Cytotoxicity against human A-375 cells assessed as cell viability at 20 uM incubated for 72 hrs by MTT assay relative to control; format: toxicity, cell-based; conditions: read-out: Activity
Danio rerio [2] = species: Danio rerio; assay: Anti-melanogenic activity against zebra fish embryos assessed as proportion of embryos showing profound decrease in melanogenesis at 25 uM measured after 48 hrs by stereomicroscope analysis relative to control; format: functional; set-up: scale not given: the % may be the effect or the level left
in vitro [3] = conditions: human, A-375 cells
Description: Cytotoxicity against human A-375 cells assessed as reduction in cell viability incubated for 72 hrs by MTT assay

Danio rerio [4] = species: Danio rerio; assay: Anti-melanogenic activity against zebra fish embryos assessed as proportion of embryos showing profound decrease in melanogenesis at 50 uM measured after 48 hrs by stereomicroscope analysis relative to control; format: functional; set-up: scale not given: the % may be the effect or the level left
Danio rerio [5] = species: Danio rerio; assay: Anti-melanogenic activity against zebra fish embryos assessed as proportion of embryos with none to mild moderate decrease in melanogenesis at 50 uM measured after 48 hrs by stereomicroscope analysis relative to control; format: functional; set-up: scale not given: the % may be the effect or the level left
Danio rerio [6] = species: Danio rerio; assay: Anti-melanogenic activity against zebra fish embryos assessed as proportion of embryos with none to mild moderate decrease in melanogenesis at 25 uM measured after 48 hrs by stereomicroscope analysis relative to control; format: functional; set-up: scale not given: the % may be the effect or the level left
[7] = Acute toxicity in zebra fish embryos assessed as lack of somite formation at 25 to 100 uM measured after 24 hrs by stereomicroscope analysis; set-up: species or system Danio rerio; conditions: zebrafish, dose 25-100 µM
[8] = Acute toxicity in zebra fish embryos assessed as lack of detachment of tail bud from yolk sac at 25 to 100 uM measured after 24 hrs by stereomicroscope analysis; set-up: species or system Danio rerio, Embryo; conditions: zebrafish, dose 25-100 µM
[9] = Acute toxicity in zebra fish embryos assessed as coagulation of fertilized eggs at 25 to 100 uM measured after 24 hrs by stereomicroscope analysis; set-up: species or system Danio rerio; conditions: zebrafish, dose 25-100 µM
[10] = Acute toxicity in zebra fish embryos assessed as bradycardia at 25 to 100 uM measured after 48 hrs by stereomicroscope analysis; set-up: species or system Danio rerio; conditions: zebrafish, dose 25-100 µM
[11] = Acute toxicity in zebra fish embryos assessed as lack of heart beat at 25 to 100 uM measured after 24 hrs by stereomicroscope analysis; format: tissue-based, Danio rerio; conditions: zebrafish, dose 25-100 µM
[12] = biological target: Mushroom tyrosinase (Agaricus bisporus) (UniProt O42713+Q00024+C7FF04+C7FF05); assay: Potency index, ratio of kojic acid IC50 to test compound IC50 for mushroom tyrosinase by spectrophotometric analysis
Danio rerio [13] = species: Danio rerio; assay: Anti-melanogenic activity against zebra fish embryos assessed as proportion of embryos showing moderate decrease in melanogenesis at 50 uM measured after 48 hrs by stereomicroscope analysis relative to control; format: functional; set-up: scale not given: the % may be the effect or the level left
Danio rerio [14] = species: Danio rerio; assay: Anti-melanogenic activity against zebra fish embryos assessed as proportion of embryos showing moderate decrease in melanogenesis at 25 uM measured after 48 hrs by stereomicroscope analysis relative to control; format: functional; set-up: scale not given: the % may be the effect or the level left
[15] = Acute toxicity in zebra fish embryos assessed as lack of heart beat at 25 to 100 uM measured after 24 to 48 hrs by stereomicroscope analysis; format: tissue-based, Danio rerio; conditions: zebrafish, dose lower 25 µM, time lower 24 hrs, dose upper 100 µM, time upper 48 hrs
[16] = Acute toxicity in zebra fish embryos assessed as lack of detachment of tail bud from yolk sac at 25 to 100 uM measured after 24 to 48 hrs by stereomicroscope analysis; set-up: species or system Danio rerio, Embryo; conditions: zebrafish, dose lower 25 µM, time lower 24 hrs, dose upper 100 µM, time upper 48 hrs
[17] = biological target: T1, Tyrosinase (Homo sapiens) (UniProt P14679); assay: Inhibition of tyrosinase activity in alpha-MSH stimulated human A-375 cells using L-DOPA as substrate at 20 uM by microplate reader analysis; format: cell-based
T1 sequence (whole entry): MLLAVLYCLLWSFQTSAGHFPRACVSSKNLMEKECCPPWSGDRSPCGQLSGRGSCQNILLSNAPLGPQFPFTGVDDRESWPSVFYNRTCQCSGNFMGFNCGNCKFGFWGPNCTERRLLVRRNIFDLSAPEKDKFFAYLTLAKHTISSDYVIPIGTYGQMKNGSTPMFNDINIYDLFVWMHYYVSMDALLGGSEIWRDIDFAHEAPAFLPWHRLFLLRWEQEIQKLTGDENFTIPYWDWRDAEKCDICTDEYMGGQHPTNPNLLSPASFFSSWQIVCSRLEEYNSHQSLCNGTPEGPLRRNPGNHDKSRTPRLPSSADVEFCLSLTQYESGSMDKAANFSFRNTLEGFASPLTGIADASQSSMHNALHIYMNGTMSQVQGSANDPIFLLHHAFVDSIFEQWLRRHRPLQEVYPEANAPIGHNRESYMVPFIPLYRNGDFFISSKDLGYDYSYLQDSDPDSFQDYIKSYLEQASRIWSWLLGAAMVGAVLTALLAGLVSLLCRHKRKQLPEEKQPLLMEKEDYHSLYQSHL

in vitro [18] = conditions: human, A-375 cells; remark: listed apart in the source
Description: Cytotoxicity against human A-375 cells assessed as cell viability at 50 uM incubated for 72 hrs by MTT assay relative to control

[19] = Acute toxicity in zebra fish embryos assessed as lack of somite formation at 25 to 100 uM measured after 24 to 48 hrs by stereomicroscope analysis; set-up: species or system Danio rerio; conditions: zebrafish, dose lower 25 µM, time lower 24 hrs, dose upper 100 µM, time upper 48 hrs
[20] = Acute toxicity in zebra fish embryos assessed as coagulation of fertilized eggs measured at 25 to 100 uM measured after 24 to 48 hrs by stereomicroscope analysis; set-up: species or system Danio rerio; conditions: zebrafish, dose lower 25 µM, time lower 24 hrs, dose upper 100 µM, time upper 48 hrs
[21] = Acute toxicity in zebra fish embryos assessed as death of organism measured at 25 to 100 uM measured after 24 hrs by stereomicroscope analysis; set-up: species or system Danio rerio; conditions: zebrafish, dose 25-100 µM
[22] = biological target: T1, Tyrosinase (Homo sapiens); assay: Inhibition of tyrosinase activity in alpha-MSH stimulated human A-375 cells using L-DOPA as substrate at 20 uM by microplate reader analysis relative to control; format: cell-based
[23] = Acute toxicity in zebra fish embryos assessed as strong malformation embryos at 25 to 100 uM measured after 48 hrs by stereomicroscope analysis; set-up: species or system Danio rerio; conditions: zebrafish, dose 25-100 µM
[24] = Acute toxicity in zebra fish embryos assessed as bradycardia at 25 to 100 uM measured after 24 hrs by stereomicroscope analysis; set-up: species or system Danio rerio; conditions: zebrafish, dose 25-100 µM
[25] = Acute toxicity in zebra fish embryos assessed as death of organism at 50 uM measured after 48 hrs by stereomicroscope analysis; set-up: species or system Danio rerio; conditions: zebrafish
[26] = Acute toxicity in zebra fish embryos assessed as alteration in heart functioning at 50 uM measured after 24 hrs by stereomicroscopic analysis; format: tissue-based, Danio rerio; conditions: zebrafish
[27] = Acute toxicity in zebra fish embryos assessed as pericardial edema and embryonic lethality at 50 uM measured after 24 hrs by stereomicroscopic analysis; set-up: species or system Danio rerio; conditions: zebrafish
[28] = Acute toxicity in zebra fish embryos assessed as strong malformation embryos at 100 uM measured after 48 hrs by stereomicroscope analysis; set-up: species or system Danio rerio; conditions: zebrafish

Structure (SMILES)	IC50 (Mushroom tyrosinase) [µM]	viability at 72 h, 20 µM [1] [%]	Activity (Danio rerio [2]) [%]	GI50 at 72 h (in vitro [3]) [µM]	Activity (Danio rerio [4]) [%]	Activity (Danio rerio [5]) [%]	Activity (Danio rerio [6]) [%]	Ratio IC50 [12]	Activity (Danio rerio [13]) [%]	Activity (Danio rerio [14]) [%]	viability at 72 h, 50 µM (in vitro [18]) [%]	other results
O=C(/C=C/c1ccc(Cl)cc1)N1CCN(c2ccc(F)c(Cl)c2)CC1	0.33	98	0	43.8	0	95	0	30	5	0	–	Activity [7]: Non-Toxic; Activity [8]: Non-Toxic; Activity [9]: Non-Toxic; Activity [10]: Toxic; Activity [11]: Non-Toxic
COc1cccc(/C=C/C(=O)N2CCN(c3ccc(F)c(Cl)c3)CC2)c1	0.25	98	0	> 50	0	100	100	30	0	0	54	Activity [15]: Non-Toxic; Activity [16]: Non-Toxic; inhibition [17]: Active; Activity [19]: Non-Toxic; Activity [20]: Non-Toxic
COc1ccc(/C=C/C(=O)N2CCN(c3ccc(F)c(Cl)c3)CC2)cc1N	0.53	45	0	16.1	30	50	80	30	20	20	–	Activity [15]: Non-Toxic; Activity [16]: Non-Toxic; Activity [19]: Non-Toxic; Activity [20]: Non-Toxic
COc1cccc(/C=C/C(=O)N2CCN(c3ccc(F)c(Cl)c3)CC2)c1Cl	0.12	98	0	> 50	20	50	85	150	30	15	69.6	inhibition [17]: Active; Activity [11]: Toxic; Activity [21]: Toxic
COc1ccc(/C=C/C(=O)N2CCN(c3ccc(F)c(Cl)c3)CC2)cc1[N+](=O)[O-]	0.51	98	15	> 50	10	45	25	30	45	60	93.5	Activity [15]: Non-Toxic; Activity [16]: Non-Toxic; inhibition [22]: 60%; Activity [19]: Non-Toxic; Activity [20]: Non-Toxic
O=C(/C=C/c1ccc([N+](=O)[O-])cc1)N1CCN(c2ccc(F)c(Cl)c2)CC1	0.35	98	–	> 50	–	–	–	30	–	–	85.4	Activity [23]: 13.3%; Activity [24]: Toxic
COc1ccc(Cl)cc1/C=C/C(=O)N1CCN(c2ccc(F)c(Cl)c2)CC1	0.46	98	–	> 50	–	–	–	30	–	–	72.6	Activity [25]: Toxic; Activity [26]: 95%; Activity [7]: Non-Toxic; Activity [8]: Non-Toxic; Activity [9]: Non-Toxic; Activity [10]: Toxic; Activity [11]: Non-Toxic; Activity [27]: 5%
O=C(/C=C/c1cccc([N+](=O)[O-])c1)N1CCN(c2ccc(F)c(Cl)c2)CC1	0.16	98	0	> 50	0	85	100	30	15	0	87.2	Activity [7]: Non-Toxic; Activity [8]: Non-Toxic; Activity [9]: Non-Toxic; Activity [11]: Non-Toxic; Activity [28]: 6.6%

Further lines, with some results ahead:

IC50 (Mushroom tyrosinase) [µM]	Structure (SMILES)	viability at 72 h, 20 µM [1] [%]	Activity (Danio rerio [2]) [%]	GI50 at 72 h (in vitro [3]) [µM]	Activity (Danio rerio [4]) [%]	Activity (Danio rerio [5]) [%]	Activity (Danio rerio [6]) [%]	Ratio IC50 [12]	Activity (Danio rerio [13]) [%]	Activity (Danio rerio [14]) [%]	viability at 72 h, 50 µM (in vitro [18]) [%]	other results
> 100	COc1ccc(/C=C/C(=O)N2CCN(c3cccc(F)c3)CC2)cc1N	–	–	–	–	–	–	–	–	–	–	–
34.25	O=C(/C=C/c1ccc2c(c1)OCO2)N1CCN(c2cccc(Cl)c2)CC1	–	–	–	–	–	–	–	–	–	–	–
15.47	COc1ccc(/C=C/C(=O)N2CCN(c3ccc(F)c(F)c3)CC2)cc1[N+](=O)[O-]	–	–	–	–	–	–	–	–	–	–	–
9.96	COc1cccc(/C=C/C(=O)N2CCN(c3ccc(F)cc3)CC2)c1	–	–	–	–	–	–	–	–	–	–	–
14.09	O=C(/C=C/c1ccc(Cl)cc1)N1CCN(c2ccc(F)cc2)CC1	–	–	–	–	–	–	–	–	–	–	–
55.64	COc1ccc(/C=C/C(=O)N2CCN(Cc3ccccc3)CC2)cc1N	–	–	–	–	–	–	–	–	–	–	–
23.32	O=C(/C=C/c1cccc([N+](=O)[O-])c1)N1CCN(c2ccc(F)cc2)CC1	–	–	–	–	–	–	–	–	–	–	–
6.84	COc1ccc(/C=C/C(=O)N2CCN(c3ccc(F)c(F)c3)CC2)cc1N	–	–	–	–	–	–	–	–	–	–	–
17.85	COc1ccc(/C=C/C(=O)N2CCN(c3ccc(F)cc3)CC2)cc1N	–	–	–	–	–	–	–	–	–	–	–
27.4	COc1ccc(Cl)cc1/C=C/C(=O)N1CCN(c2ccc(F)cc2)CC1	–	–	–	–	–	–	–	–	–	–	–
